Data published in US20090163413A1, “DENTAL PRODUCTS COMPRISING BONE GROWTH ENHANCING PEPTIDE” (Acologix., Inc., priority 2000, published 2009).
No end group written: not given here.

System: calvaria from 4-days-old mice
Assay: Fetal mouse calvarial assay (mouse calvarial organ culture, histomorphometrical analysis of new bone area)
Assay type: cell-based
Conditions: assay terminated at day 7, FGF-1 as positive control
Protocol: FGF-1 was purchased from Peprotech Inc. (Rocky Hill, N.J.). RGD-1, 2, 3, 4, 5 and 6 (referred to here as D-00001, D-00002, D-00003, D-00004, D-00005 and D-00006) were provided by Dr. Nomizu (Hokkaido University, Japan).
Pregnant ICR mice were purchased from SLC Japan Co. Ltd. (Shizuoka, Japan).
Mouse calvarial organ culture was performed as described in Mundy G et al. Science 286: 1946-1949, 1999 and Traianedes K et al. Endocrinology 139: 3178-3184, 1998. The calvaria from 4-days-old mice were excised and cut in half along the sagittal suture. Each half of the calvaria was placed on a stainless steel grid in a 12-well tissue culture dish (Asahi Glass Techno Corp., Funabashi, Japan). Each well contained 1.5 ml of BGj medium (Sigma, St. Louis, Mo.) supplemented with 0.1% bovine serum albumin (Sigma) and each compound. FGF-1 was used as a positive control as described by Mundy et al. The medium was changed at day 1 and 4, and the assay was terminated at day 7.
Calvaria was fixed with 10% neutral-buffered formalin, decalcified with 4.13% EDTA and embedded in paraffin. […] sections were made and stained with hematoxylin and eosin. New bone area was measured using Image-Pro Plus (Media Cybernetics, Silver Spring, Md.).
The six peptides of Example 1 were tested for their ability to enhance bone growth with the tests being carried out as described above in Example 2.

Row | Sequence | ability to enhance bone growth (new bone area)
1 | ERGDNDISPFSGDGQ (ERGDNDISPFSGDGQ-NH2) [D-00004] | best results
2 | TDLQERGDNDISPFSGDGQPFKD [D-00006] | best results
